Test results from patent US20200330409A1, “INJECTABLE COMPOSITION COMPRISING HYALURONIDASE FOR REMOVING LOCAL FAT” (priority 2019, published 2020).

System: local fat
Assay: Clinical trials on hyaluronidase unit dose (efficacy threshold, diffusion range)
Format: in vivo
Settings: per injection
Experimental: It was ascertained from clinical trials that at the hyaluronidase unit dose of 300 IU to 600 IU, it was possible to ensure adequate fat removing effect while minimizing side effects. It was also shown in clinical trials that at the above dose range, if the injectable composition is administered in a volume of 1 cc containing 300 IU of hyaluronidase, the diameter of the diffusion range is about 1 cm. Thus, with the hyaluronidase dose set at 300 IU to 600 IU, by injecting the composition at a volume of 0.5 to 2 cc depending on the hyaluronidase dose and with an interval of 0.5 to 1.5 cm between injection points, injection at narrow intervals is possible, and consequently, lipolysis occurs evenly. Furthermore, a lifting effect occurs concomitantly where skin resilience is improved by the promotion of collagen production through the stimulation of skin by the injection needle. […] Thus, by administering an injectable composition of the present disclosure having the above compositional ranges, the side effects from drug use are minimized while fat removal over a wide area can be carried out using minimal volumes. It was shown in clinical trials that at a hyaluronidase dose of 300 IU, the diameter of the diffusion range for the injectable composition is about 1 cm. […]

**Q.** How did the “minimum amount of hyaluronidase exhibiting efficacy” value turn out when hyaluronidase was run?
**A.** 300 IU
